Assay results published in paper PMC4424274, “Evaluation of [^11C]CB184 for imaging and quantification of TSPO overexpression in a rat model of herpes encephalitis” (European Journal of Nuclear Medicine and Molecular Imaging, 2015).
“And” between values parts separate entries of the source, which are not always exact repeats. Equal entries are not always repeated. Where two headings read alike, the source gives them in different places. One block for each molecule: values may come before it.

Tests used:
TSPO [1] = target: T1, TSPO (Rattus norvegicus, UniProt P16257); experiment: Ex vivo biodistribution of [^11C]CB184 in control and HSE rats; settings: 5 mg/kg unlabelled PK11195 5 min before tracer injection; control and HSE rats
T1 construct: from tissue; host or cells: Brain regions and peripheral organs of male Wistar rats, measured in vivo by PET and ex vivo by gamma counting
Method: PET scans were performed using a microPET Focus 220 camera (Siemens Medical Solutions Inc., Malvern, PA) on either day 6 or day 7 after inoculation with HSV-1 [18], depending on the severity of clinical symptoms. The rats were anaesthetized with 5 % isoflurane mixed with medical air at a flow rate of […]. After induction, anaesthesia was maintained with 1.5 – 2 % of isoflurane. The anaesthetized rats were positioned in the camera in a supine position with the head in the field of view. The PET tracer [^11C]CB184 was manually injected via the penile vein, and at the same time a dynamic 60-min scan was started. […] For 30 min the animals were kept under anaesthesia on the operation table after injection of the PET tracer into the penile vein, and were then placed in the scanner for a 30-min dynamic scan. A transmission scan was obtained in all rats using a ^57Co point source for attenuation and scatter correction. In the pretreated group, 5 mg/kg unlabelled PK11195 (Sigma-Aldrich, St. Louis, MO) in dimethyl sulphoxide (DMSO) at a concentration of 10 mg/ml was administered via a tail vein 5 min before injection of the PET tracer.
The brain and peripheral organs were excised and dissected, and blood was centrifuged to collect a plasma sample. Tissues were weighed and radioactivity was measured in a gamma counter (LKB Wallac, Turku, Finland). Tracer uptake in each region was corrected for the injected tracer dose and body weight and expressed as standardized uptake value (SUV), which was defined as: radioactivity (MBq/cm^3)/[injected dose (MBq)/body weight (g)].

TSPO [2] = target: T1, TSPO; settings: HSE rat model; cited from earlier work
[3] = design: method as in PMID 19050880; settings: cited from earlier work
[4] = Plasma clearance and plasma metabolite analysis; format: in vivo, rat; settings: metabolite-corrected plasma, intravenous injection, rats
Method: (§1) PET scans with arterial blood sampling were performed in a different set of rats to generate input for pharmacokinetic modelling. For the arterial blood sampling a cannula was inserted into the femoral artery after induction of anaesthesia. The femoral vein was additionally cannulated for PET tracer injection. After cannulation, the rats were positioned in the camera and a transmission scan was acquired using a ^57Co point source. […] A 0.1 ml blood sample of was taken at 0, 5, 10, 15, 20, 30, 45, 60, 75, 90, 120, 180, 300, 450, 600, 900, 1,800 and 3,600 s after injection. A larger blood sample of 0.5 ml was taken at three time points (5, 15, 30 and/or 60 min) for metabolite analysis. After collection of each blood sample, heparinized saline was injected to prevent large changes in blood pressure. A 25 μl aliquot of whole blood was extracted from each sample for radioactivity measurement. The remainder of each sample was centrifuged at 13,000 rpm (15,996 g) for 8 min, and 25 μl plasma was taken for radioactivity measurement. The radioactivity in blood and plasma was measured with a gamma counter.
Radioactive metabolites in plasma were measured using the extra blood samples taken at three time points during each scan (5, 15, 30 and/or 60 min). After centrifugation and collection of the plasma sample for radioactive measurement, as described above, the remaining plasma was diluted with acetonitrile (1.5 times the amount of plasma) and vortex-mixed. The plasma suspension was centrifuged at 5,300 rpm (3,030 g) for 3 min, and divided into supernatant and pellet. […] Fractions of 30 s were collected and measured in the gamma counter.
The percentage of metabolites in plasma was calculated by fitting an exponential function to the values obtained from the HPLC analysis. The plasma values obtained from the blood samples during the PET scan were then corrected for the presence of these metabolites, and used together with the whole-blood curve for further analysis. Metabolite corrected plasma TACs were fitted for each individual rat using iterative nonlinear least-squares fitting to the biexponential equation: SUVt = Ae^−αt + Be^−βt, where SUVt is the plasma SUV at time t, α and β are the apparent distribution and elimination rate constants (s^−1), respectively, and A and B are the corresponding zero-time intercepts. The weighting factors were the reciprocals of the plasma SUV squared. Distribution and elimination half-lives (seconds) were calculated as the natural logarithm of 2 divided by α and β, respectively.

[5] = lipophilicity; cited from earlier work
TSPO [6] = target: T1, TSPO; experiment: Kinetic modelling of PET data (2TCMR, Logan): BPND and VT; format: in vivo
Method: as §1
The TACs of those rats in which blood sampling was performed, together with their corresponding whole-blood and metabolite-corrected plasma curves, were used for pharmacokinetic modelling using PMOD v3.3 (PMOD Technologies, Zürich, Switzerland). […] The reversible two-tissue compartment model (2TCMR) with K 1/k 2 fixed to the whole cortex value and a fixed blood volume of 3 % were used to calculate the V T and nondisplaceable binding potential (BPND, calculated as k 3/k 4 [29]).

[7] = control rats (PBS group), k3/k4

SMILES: CCC(C)N(C)C(=O)c1cc2ccccc2c(-c2ccccc2Cl)n1 (centres unmarked) [PK11195, reference compound]
- Effect of pretreatment on [^11C]CB184 binding to TSPO (TSPO [1]): blocked

SMILES: COc1ccc(O[11CH3])c(CN(C(C)=O)c2cc(F)ccc2Oc2ccccc2)c1 [[^11C]DAA1106]
- Uptake in vivo in HSE rats vs. control rats (TSPO [2]): did not show significantly higher uptake

- Distribution half-life in plasma [4]: 0.367 ± 0.12 min
- Elimination half-life in plasma [4]: 65 ± 46 min
- Binding potential (BPND), Amygdala (TSPO [6]; HSE group, k3/k4): 1.92 ± 0.73
- Binding potential (BPND), Cerebellum (TSPO [6]; HSE group, k3/k4): 1.89 ± 0.39
- Binding potential (BPND), Frontal cortex (TSPO [6]; HSE group, k3/k4): 1.54 ± 0.54
- Binding potential (BPND), Hippocampus (TSPO [6]; HSE group, k3/k4): 1.39 ± 0.58
- Binding potential (BPND), Hypothalamus (TSPO [6]; HSE group, k3/k4): 2.28 ± 0.84
- Binding potential (BPND), Midbrain (TSPO [6]; HSE group, k3/k4): 1.34 ± 0.42
- Binding potential (BPND), Olfactory bulb (TSPO [6]; HSE group, k3/k4): 4.03 ± 1.20
- Binding potential (BPND), Pons (TSPO [6]; HSE group, k3/k4): 2.44 ± 0.41
- Binding potential (BPND), Rest cortices (TSPO [6]; HSE group, k3/k4): 1.62 ± 0.60
- Binding potential (BPND), Septum (TSPO [6]; HSE group, k3/k4): 1.34 ± 0.57
- Binding potential (BPND), Striatum (TSPO [6]; HSE group, k3/k4): 1.03 ± 0.43
- Binding potential (BPND), Thalamus (TSPO [6]; HSE group, k3/k4): 1.03 ± 0.51
- Binding potential (BPND), Whole brain (TSPO [6]; HSE group, k3/k4): 1.72 ± 0.49
- Binding potential (BPND), Amygdala (TSPO [6]; [7]): 1.65 ± 0.62
- Binding potential (BPND), Cerebellum (TSPO [6]; [7]): 1.51 ± 0.60
- Binding potential (BPND), Frontal cortex (TSPO [6]; [7]): 1.35 ± 0.51
- Binding potential (BPND), Hippocampus (TSPO [6]; [7]): 0.98 ± 0.44
- Binding potential (BPND), Hypothalamus (TSPO [6]; [7]): 1.92 ± 0.82
- Binding potential (BPND), Medulla (TSPO [6]; [7]): 1.7 ± 0.6 and 1.65 ± 0.60
- Binding potential (BPND), Midbrain (TSPO [6]; [7]): 0.96 ± 0.49
- Binding potential (BPND), Olfactory bulb (TSPO [6]; [7]): 3.76 ± 1.16
- Binding potential (BPND), Pons (TSPO [6]; [7]): 1.74 ± 0.69
- Binding potential (BPND), Rest cortices (TSPO [6]; [7]): 1.33 ± 0.46
- Binding potential (BPND), Septum (TSPO [6]; [7]): 1.20 ± 0.38
- Binding potential (BPND), Striatum (TSPO [6]; [7]): 0.88 ± 0.33
- Binding potential (BPND), Thalamus (TSPO [6]; [7]): 0.75 ± 0.35
- Binding potential (BPND), Whole brain (TSPO [6]; [7]): 1.38 ± 0.49
- Increase of BPND in the medulla, HSE rats vs. control rats (TSPO [6]; medulla): 55%
SMILES: CC[C@@H](C)N([11CH3])C(=O)c1cc2ccccc2c(-c2ccccc2Cl)n1 [(R)-[^11C]PK11195, reference compound]
- Percentage of unchanged tracer in rat brain homogenate ([3]; 20 min after injection): 93 ± 4%
- Percentage of unchanged tracer in rat brain homogenate ([3]; 40 min after injection): 90 ± 7%
- logP [5]: 2.54
